{"source": "patent US10583109B2", "about": "“Use of silver(I) complexes as anticancer agents” (University of Johannesburg, priority 2012, dated 2020)", "format_in_all_cases": "cell-based", "key": {"[1]": {"test_system": "SNO-oesophageal cancer cells", "experiment": "Morphological features of SNO-oesophageal cancer cells by inverse light microscopy", "settings": "10 μM, 24 hours of treatment", "description": "Morphological studies were done by means of an Axiovert 25 inverted microscope (Carl Zeiss, Göttingen, Germany) with Axio Vision 3.1 software (Carl Zeiss, Göttingen, Germany) using an magnification of 100×.\nAfter 24 hours of treatment with complexes (1)-(5) including their ligands the cells were examined under said Axiovert 25 inverted light microscope. This was done to determine how the complexes of the present invention influence morphology which was compared to 100 μM Cisplatin (apoptotic control) and 15% H2O2 (necrotic control).\nLight microscope images indicating the morphology of the differentially treated SNO-oesophageal cancer cells is shown in FIG. 8. An untreated control (a) including 100 μM Cisplatin (b), an apoptotic control and 15% H2O2 (c), and a necrotic control was included. Cells were treated with 10 μM silver(I) thiocyanate phosphine complexes (1)-(5) as well as their separate ligands (Ligand-1 to Ligand-5, respectively) (FIGS. 8d to 8m). Black arrows represent signs of apoptosis, while the white arrows represent signs of necrosis.\nAn Axiovert 25 inverted microscope was used to examine if these complexes affect the morphological features of the malignant cells in any other way. This was done at a magnification of 100× with the use of Axio Version 3.1 software (Carl Zeiss, Gottingen, Germany).\nMorphological studies where done after 24 hours of treatment to determine how these compounds influence/change specific features of the malignant SNO-oesophageal cancer cells, compared to the untreated (UC) and 1% DMSO vehicle control. The treated cancer cells including their controls were examined under an Axiovert 25 inverted light microscope (Carl Zeiss, Göttingen, Germany) with Axio Vision 3.1 software (Carl Zeiss, Göttingen, Germany) using a 100× magnification. In FIG. 19, the morphology of the different controls including Ligand-10 and complexes (10)-(12) are represented. To predict the targeting mechanisms of these compounds, the treated cells were compared to 100 μM Cisplatin (apoptotic control) and 25% H2O2 (necrotic control)."}, "[2]": {"test_system": "SNO-oesophageal cancer cells", "settings": "for cells' viability: 10 µM", "description": "The SNO-oesophageal cancer cells were cultured in Dulbecco's modified Eagles medium (DMEM) containing 10% Foetal bovine serum (FBS), 0.8% Penicillin/Streptomycin/Fungizone and 0.2% Gentamycin. The SNO-oesophageal cancer cells were subcultured every 48 hours and incubated at 37° C. under a 5% CO2 humidified atmosphere. After 48 hours the cells were trypsinized and plated (6×10^5 cells) in 3.5 cm culture dishes and left to cultivate for 24 hours.\nMCF-7 breast cancer cells, in terms of a first study, and SNO-oesophageal cancer cells, in terms of a second study, were treated with 10 μM silverthiocyanide complexes (1)-(5), as well as their ligands (Ligand-1 to Ligand-5) over a 24 hour incubation period. These complexes were dissolved in 0.1% Dimethyl sulfoxide (DMSO). The DMSO alone (vehicle control) decreased the viability with approximately 2.2%, signifying its minimal influence in cancer cell growth. For comparative purposes, 100 μM Cisplatin (CDDP) and 25% H2O2 was included which respectively serves as the apoptotic and necrotic controls. Cisplatin was prepared in 0.9% NaCl, whereas H2O2 was prepared in the supplemented DMEM media right before treatment. An untreated negative control (UT) was exposed to similar conditions as the treated cells and monitored during the experimental study.\nAn AlamarBlue® Viability® (Serotec, UK) assay was performed after a 24 hour treatment with complexes (1)-(5) and their ligands (Ligand-1 to Ligand-5, respectively) to evaluate the cellular effect the instant complexes (and their ligands) may have on the cancer cells. AlamarBlue® dye (10%) was incubated with trypsinized cells over a 2 hour period before the fluorescence was measured with a Synergy HT Multi-Detection Microplate reader (BioTek, Winooski, Vt.) at wavelengths of 530 nm and (excitation) and 590 nm (emission). This fluorescent based assay in particular involves the metabolic oxidation-reduction reaction of resazurin to a reduced resorufin product that is directly proportional to the amount of viable cells.\nThe percentage cellular viability of differentially treated SNO-oesophageal cells was determined using an AlamarBlue® assay, as depicted in FIG. 7. Different controls (grey) were included: untreated, 0.1% DMSO solvent and apoptotic control (100 μM Cisplatin) as well as the corresponding ligands (10 μM) of complexes (1)-(5). Cells were treated with silver(I) thiocyanate phosphine complexes (1)-(5) at a concentration of 10 μM. The percentages were calculated with respect to the control and error bars were constructed on the basis of Standard Error of the Mean (SEM) where n=9 except for the ligand of compound 4 (n=8). The P-values (*P<0.001 and **P<0.0001) were determined with the Student's T-test to evaluate the significant difference.\nThe cells were thereafter treated with complexes (6)-(9) at a concentration of 10 μM prepared in 0.1% DMSO. Treatment with either 25% H2O2 or 100 μM CDDP served as controls for necrosis and apoptosis respectively. The CDDP was prepared in 0.9% NaCl while the H2O2 was diluted with supplemented DMEM prior to treatment.\nA suspension (100 μl) of the differentially treated cells was added in triplicate to a microtiter plate. In the dark, AlamarBlue® dye (10 μl) was added to each well containing a sample, followed by a 2 hour incubation in a 5% CO2 incubator at 37° C. The fluorescence was read on a Synergy HT Multi-Detection Microplate reader at a wavelength of 530 nm and (excitation) and 590 nm (emission). In terms of this study, the apoptotic control CDDP (100 μM) was included. Error bars represent the standard error of the mean (SEM) where n=9. The Student's T-test was used to determine the significant difference of the treatments with respect to DMSO (P*<0.05 and P**<0.001). The silver(I) nitrate phosphine complexes under evaluation decreased the cancer cell viability to a large extent compared to DMSO except complex (9).\nSNO-oesophageal cancer cells were a gift from the University of Pretoria, RSA. […]"}, "[3]": {"test_system": "SNO-oesophageal cancer cells", "experiment": "Flow cytometric analysis (Annexin-V FITC / PI) of apoptosis and/or necrosis in SNO-oesophageal cancer cells", "settings": "10 μM, 24 hours of treatment", "description": "To determine if either apoptosis or necrosis occurred, the cells were double labelled with Annexin-V FITC and Propidium Iodide (PI) by means of an Annexin-V FITC assay kit (Serotec, UK). This was done according to manufacturer's instructions with a few adjustments. Briefly, the cells (±3×10^5 cells/ml) were washed twice with cold phosphate buffered saline (PBS), followed by the addition of 100 μl 1× binding buffer. Two and a half microliters of Annexin-V along with 5 μl PI were added in the dark and was incubated for 15 minutes at room temperature. After incubation, 400 μl 1× binding buffer was added and cells were analysed using the FACSAria flow cytometer (BD Biosciences, San Jose, Calif.) with FACSDiva software (BD Biosciences, San Jose, Calif.) 492 nm (excitation) and 520 nm for Annexin and 488 nm and 575 nm(emission) for PI.\nThe cell membrane contains a negatively charged phosphatidylserine (PS) on the inner leaflet and is exposed when apoptosis or necrosis takes place. Annexin-V interacts with PS in both apoptotic and necrotic cells, making these cellular deaths undistinguishable. This is overcome by using PI as an alternative label that interacts with the exposed DNA of necrotic cells only, leading to the fluorescent detection of both these labels. Pie charts (FIG. 9) were constructed for all the controls (including Ligand-1 to Ligand-5) and the different silver(I) thiocyanate phosphine complexes (1)-(5).\nPie charts representing the four different flow cytometric quadrants of Annexin-V and […] to determine the mode of cellular death induced in differentially treated SNO-oesophageal cells are represented in FIG. 9. An untreated control (A), apoptotic control (B) and necrotic control (C) were included. Cells were treated with 10 μM of the different ligands including the silver(I) thiocyanate phosphine complexes (1)-(5). An average percentage was calculated for all segments where the SEM is n=3 for all treatments except for 15% H2O2 (n=2). The four segments represent the following: White segment—negative for FITC and PI, Light grey segment—positive for FITC but negative for PI, Dark grey segment—positive for PI but negative for FITC and Black segment—positive for both FITC and PI. Cells undergoing early apoptosis are represented by the light grey segment, while those of late apoptosis and primary necrosis are represented by the black segment. Necrotic cells are represented by the dark grey segment and intact viable cells are shown by the white segment.\nApproximately 3×10^5 cells were washed with ice cold phosphate buffered saline solution (PBS). The cells were double labeled using an Annexin-V FITC assay kit adjusting the protocol. A 1× binding buffer (100 μl) was used to fix the cells. Annexin-V (2.5 μl) and Propidium Iodide (PI—5 μl) labels were added respectively followed by a 15 minute incubation, at room temperature, in the dark. After the incubation period, 400 μl of the 1× binding buffer was added, where counting of the cellular events was made using an FACSAria flow cytometer (BD Biosciences, San Jose, Calif.) with FACSDiva software (BD Biosciences, San Jose, Calif.). This technique in particular identifies whether predicted apoptotic cell death (or necrosis) was induced by these complexes.\nAs observed in FIG. 14, dot blots represent the mode of cellular death induced in the SNO-oesophageal cancer cells after 24 hours of treatment. FIG. 14(a): 0.1% DMSO, FIG. 14(b): 100 μM CDDP, FIG. 14(c): 25% H2O2, FIG. 14(d-i): complexes (6)-(9). An average percentage was calculated for all quadrants where the SEM is n=2 for all treatments. The four quadrants represent the following: Quadrant Q3 is negative for FITC and PI, Quadrant Q4 is positive for FITC but negative for PI, Quadrant Q1 is positive for PI but negative for FITC and Quadrant Q2 is positive for both FITC and PI. Cells undergoing early apoptosis are more likely to be found in Quadrant Q4 while those of late apoptosis and primary necrosis will be found in Quadrant Q2. […]"}}, "data": [{"molecule": "c1ccc(P(c2ccccc2)c2ccccc2)cc1", "note": "[Ligand-1, triphenyl phosphine, reference compound]", "values": [{"measurement": "signs of apoptosis (morphology)", "setting": "[1]", "value": "minimal"}]}, {"molecule": "Cc1ccc(P(c2ccc(C)cc2)c2ccc(C)cc2)cc1", "note": "[Ligand-2, P(p-MeC6H4)3, reference compound]", "values": [{"measurement": "signs of apoptosis (morphology)", "setting": "[1]", "value": "minimal"}, {"measurement": "cells' viability", "setting": "[2]", "value": 86.4, "unit": "%"}]}, {"molecule": "Fc1ccc(P(c2ccc(F)cc2)c2ccc(F)cc2)cc1", "note": "[Ligand-3, P(4-FC6H4)3, reference compound]", "values": [{"measurement": "signs of apoptosis (morphology)", "setting": "[1]", "value": "no"}]}, {"molecule": "Clc1ccc(P(c2ccc(Cl)cc2)c2ccc(Cl)cc2)cc1", "note": "[Ligand-4, tris parachlorophenyl phosphine, reference compound]", "values": [{"measurement": "signs of apoptosis (morphology)", "setting": "[1]", "value": "minimal"}]}, {"molecule": "COc1ccc(P(c2ccc(OC)cc2)c2ccc(OC)cc2)cc1", "note": "[Ligand-5, P(p-MeOC6H4)3, reference compound]", "values": [{"measurement": "signs of apoptosis (morphology)", "setting": "[1]", "value": "minimal"}, {"measurement": "cells' viability", "setting": "[2]", "value": 80.7, "unit": "%"}]}, {"molecule": "O=[N+]([O-])[O-].[Ag+].c1ccc(P(c2ccccc2)c2ccccc2)cc1", "note": "[complex (6), AgNO3(PPh3)]", "values": [{"measurement": "apoptotic cell death (flow cytometry, Q4 and Q2)", "setting": "[3]", "value": 20, "unit": "%"}]}, {"molecule": "O=[N+]1[O][Ag]([P+](c2ccccc2)(c2ccccc2)c2ccccc2)([P+](c2ccccc2)(c2ccccc2)c2ccccc2)[O]1", "note": "[complex (7), AgNO3(PPh3)2]", "values": [{"measurement": "apoptotic cell death (flow cytometry, Q4 and Q2)", "setting": "[3]", "value": 30.6, "unit": "%"}]}, {"molecule": "O=[N+]([O-])[O][Ag]([P+](c1ccccc1)(c1ccccc1)c1ccccc1)([P+](c1ccccc1)(c1ccccc1)c1ccccc1)[P+](c1ccccc1)(c1ccccc1)c1ccccc1", "note": "[complex (8), AgNO3(PPh3)3]", "values": [{"measurement": "apoptotic cell death (flow cytometry, Q4 and Q2)", "setting": "[3]", "value": 24, "unit": "%"}]}, {"molecule": "[AgSCN{P(4-MeOC6H4)3}2]n [complex (5)]", "values": [{"measurement": "necrotic cell death (morphology)", "setting": "[1]", "value": "Necrotic cell death was also observed"}, {"measurement": "percentage cellular viability / toxicity", "setting": "[2]; 10 μM, 24 hour treatment, compared to the control", "value": "highly toxic"}]}]}
